In PubChem BioAssay (NCI):
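The compound was tested at five concentrations on cells cultured in 96-well plates, with a 48-hour exposure period. Here, GI50 denotes the concentration required for 50% inhibition of growth. TGI: total growth inhibition.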

Experiments:
Assay in all cases: NCI-60 cell line screen, 48 h
MDA-MB-231 breast = test system: MDA-MB-231 breast
OVCAR-8 ovarian = test system: OVCAR-8 ovarian
LOX IMVI melanoma = test system: LOX IMVI melanoma
OVCAR-3 ovarian = test system: OVCAR-3 ovarian
SNB-75 CNS = test system: SNB-75 CNS
ACHN renal = test system: ACHN renal
NCI/ADR-RES ovarian = test system: NCI/ADR-RES ovarian
UACC-62 melanoma = test system: UACC-62 melanoma
NCI-H226 lung = test system: NCI-H226 lung
SNB-19 CNS = test system: SNB-19 CNS
SF-268 CNS = test system: SF-268 CNS
K-562 leukemia = test system: K-562 leukemia
SK-MEL-28 melanoma = test system: SK-MEL-28 melanoma
SW-620 colon = test system: SW-620 colon
HT29 colon = test system: HT29 colon
UACC-257 melanoma = test system: UACC-257 melanoma
OVCAR-4 ovarian = test system: OVCAR-4 ovarian
HCT-116 colon = test system: HCT-116 colon
MALME-3M melanoma = test system: MALME-3M melanoma
NCI-H23 lung = test system: NCI-H23 lung
BT-549 breast = test system: BT-549 breast
CCRF-CEM leukemia = test system: CCRF-CEM leukemia
KM12 colon = test system: KM12 colon
NCI-H522 lung = test system: NCI-H522 lung
HOP-62 NSCLC = test system: HOP-62 NSCLC
T-47D breast = test system: T-47D breast
NCI-H460 lung = test system: NCI-H460 lung
HOP-92 NSCLC = test system: HOP-92 NSCLC

**Q.** Which GI50 (MDA-MB-231 breast) does the source give for O=C(N/N=C/c1ccc(Br)s1)c1[nH]c2ccc(Br)cc2c1-c1ccccc1 here?
**A.** 2.31 µM

**Q.** And the TGI (MDA-MB-231 breast)?
**A.** > 100 µM

**Q.** And the GI50 (OVCAR-8 ovarian)?
**A.** 0.296 µM

**Q.** What about the TGI (OVCAR-8 ovarian) of the same molecule?
**A.** 1.82 µM

**Q.** And the GI50 (LOX IMVI melanoma)?
**A.** 0.312 µM

**Q.** What about the TGI (LOX IMVI melanoma) of the same molecule?
**A.** 1.35 µM

**Q.** And the GI50 (OVCAR-3 ovarian)?
**A.** 0.638 µM

**Q.** What about the TGI (OVCAR-3 ovarian) of the same molecule?
**A.** 38.4 µM

**Q.** And the GI50 (SNB-75 CNS)?
**A.** 0.843 µM

**Q.** And the TGI (SNB-75 CNS)?
**A.** 7.95 µM

**Q.** And the GI50 (ACHN renal)?
**A.** 0.903 µM

**Q.** What about the TGI (ACHN renal) of the same molecule?
**A.** > 45.5 µM

**Q.** What about the GI50 (NCI/ADR-RES ovarian) of the same molecule?
**A.** 0.131 µM

**Q.** What about the TGI (NCI/ADR-RES ovarian) of the same molecule?
**A.** 7.11 µM

**Q.** What about the GI50 (UACC-62 melanoma) of the same molecule?
**A.** 1.03 µM

**Q.** And the TGI (UACC-62 melanoma)?
**A.** > 46.1 µM

**Q.** What about the GI50 (NCI-H226 lung) of the same molecule?
**A.** 0.826 µM

**Q.** What about the TGI (NCI-H226 lung) of the same molecule?
**A.** > 37 µM

**Q.** And the GI50 (SNB-19 CNS)?
**A.** 1.07 µM

**Q.** What about the TGI (SNB-19 CNS) of the same molecule?
**A.** > 95.7 µM

**Q.** And the GI50 (SF-268 CNS)?
**A.** 1.61 µM

**Q.** And the TGI (SF-268 CNS)?
**A.** > 100 µM

**Q.** And the GI50 (K-562 leukemia)?
**A.** 0.327 µM

**Q.** What about the TGI (K-562 leukemia) of the same molecule?
**A.** > 100 µM

**Q.** And the GI50 (SK-MEL-28 melanoma)?
**A.** 1.72 µM

**Q.** And the TGI (SK-MEL-28 melanoma)?
**A.** > 88 µM

**Q.** And the GI50 (SW-620 colon)?
**A.** 0.418 µM

**Q.** And the TGI (SW-620 colon)?
**A.** > 100 µM

**Q.** What about the GI50 (HT29 colon) of the same molecule?
**A.** 0.311 µM

**Q.** What about the TGI (HT29 colon) of the same molecule?
**A.** > 35.8 µM

**Q.** What about the GI50 (UACC-257 melanoma) of the same molecule?
**A.** 1.06 µM

**Q.** And the TGI (UACC-257 melanoma)?
**A.** > 88.3 µM

**Q.** And the GI50 (OVCAR-4 ovarian)?
**A.** 1.21 µM

**Q.** And the TGI (OVCAR-4 ovarian)?
**A.** > 53 µM

**Q.** And the GI50 (HCT-116 colon)?
**A.** 0.282 µM

**Q.** And the TGI (HCT-116 colon)?
**A.** > 100 µM

**Q.** And the GI50 (MALME-3M melanoma)?
**A.** 1.31 µM

**Q.** And the TGI (MALME-3M melanoma)?
**A.** > 68.1 µM

**Q.** And the GI50 (NCI-H23 lung)?
**A.** 0.895 µM

**Q.** And the TGI (NCI-H23 lung)?
**A.** > 51.7 µM

**Q.** And the GI50 (BT-549 breast)?
**A.** 0.738 µM

**Q.** What about the TGI (BT-549 breast) of the same molecule?
**A.** 2.16 µM

**Q.** And the GI50 (CCRF-CEM leukemia)?
**A.** 0.37 µM

**Q.** And the TGI (CCRF-CEM leukemia)?
**A.** > 100 µM

**Q.** And the GI50 (KM12 colon)?
**A.** 1.18 µM

**Q.** What about the TGI (KM12 colon) of the same molecule?
**A.** > 79.6 µM

**Q.** What about the GI50 (NCI-H522 lung) of the same molecule?
**A.** 0.0898 µM

**Q.** What about the TGI (NCI-H522 lung) of the same molecule?
**A.** 0.344 µM

**Q.** And the GI50 (HOP-62 NSCLC)?
**A.** 1.29 µM

**Q.** What about the TGI (HOP-62 NSCLC) of the same molecule?
**A.** > 66.9 µM

**Q.** What about the GI50 (T-47D breast) of the same molecule?
**A.** 7.05 µM

**Q.** And the TGI (T-47D breast)?
**A.** > 100 µM

**Q.** What about the GI50 (NCI-H460 lung) of the same molecule?
**A.** 0.762 µM

**Q.** What about the TGI (NCI-H460 lung) of the same molecule?
**A.** 8.09 µM

**Q.** What about the GI50 (HOP-92 NSCLC) of the same molecule?
**A.** 0.462 µM

**Q.** And the TGI (HOP-92 NSCLC)?
**A.** > 69.1 µM
